This is an account of results in patent publication US20260306502A1, “MITOCHONDRIAL UNCOUPLERS FOR TREATMENT OF METABOLIC DISEASES AND CANCER” (Mito Biopharma, LLC, priority 2022, published 2026).

Each structure is given as a SMILES string.

The test system of one data set is C2C12 cells. Kind of data set: Mitochondrial uncoupling activity by oxygen consumption rate (OCR) assay, Seahorse, in presence of oligomycin. The format is cell-based, mouse. To be noted: Mus musculus, C2C12; in the presence of oligomycin 2.5 μM; read-out: COCR-min: minimal concentration increasing OCR in the presence of oligomycin. In a few lines:
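Mouse C2C12 myoblasts grown in 10% FBS medium had OCR measured on Seahorse XF96/XF24 sequentially: basal, after 2.5 μM oligomycin (final), then after compound at varying concentrations. Rotenone/antimycin A confirmed mitochondrial origin. COCR-min is the minimal compound concentration inducing OCR in the presence of oligomycin.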
With `N#CC1CCN(Cc2cc(Cl)cc(C(=O)Nc3nc4ccc(C(F)(F)F)cc4s3)c2O)C1` (stereo not drawn) [Compound 36, 5-chloro-3-((3-cyanopyrrolidin-1-yl)methyl)-2-hydroxy-N-(6-(trifluoromethyl)benzo[d]thiazol-2-yl)benzamide], the minimal effective concentration was below 5 µM.

In the case of `CS(=O)(=O)C1CCN(Cc2cc(Cl)cc(C(=O)Nc3nc4ccc(C(F)(F)F)cc4s3)c2O)C1` (stereo not drawn) [Compound 37, 5-chloro-2-hydroxy-3-((3-(methylsulfonyl)pyrrolidin-1-yl)methyl)-N-(6-(trifluoromethyl)benzo[d]thiazol-2-yl)benzamide], the minimal effective concentration was above 10 µM.

For `COCCOCc1cc(F)cc(C(=O)Nc2nc3ccc(C(F)(F)F)cc3s2)c1O` [Compound 43], the minimal effective concentration was below 5 µM.

In the case of `Cc1cc(Cl)cc(C(=O)Nc2nc3c(COCc4ccc(F)cc4)cc(C(F)(F)F)cc3s2)c1O` [Compound 83, 5-chloro-N-(4-(((4-fluorobenzyl)oxy)methyl)-6-(trifluoromethyl)benzo[d]thiazol-2-yl)-2-hydroxy-3-methylbenzamide], the minimal effective concentration was below 5 µM.

Another data set relates to cultured mammalian cells, the NIH-3T3 cells, C2C12 cells, and other mammalian cell lines. Kind of data set: Mitochondrial membrane potential (MMP) assay, TMRE (or DilC1(5)) staining, related to OCR induction. It counts as cell-based. To be noted: ratio of concentration leading to 10% MMP retention (90% MMP loss, TMRE) to minimal concentration leading to OCR increase. Here is the method:
Mitochondrial membrane potential assay was performed using the standard TMRE (tetramethylrhodamine ethyl ester) staining method with cultured mammalian cells, the NIH-3T3 cells, C2C12 cells, and other mammalian cell lines. Cells were seeded in 6-well plates and cultured in DMEM medium supplemented with 10% fetal bovine serum and 2 mM glutamine. Cells were allowed to grow to the logarithmic growth phase prior to experiments. The cells were treated with each individual compound at various concentrations for two hours, followed by staining with TMRE at a final concentration of 100 nM for 15 minutes. The cells were then washed once with PBS, and examined under fluorescence microscopy. Cells treated with various concentrations of niclosamide ethanolamine were used as a positive control.
In some examples, mitochondrial membrane potential was measured with DilC1(5) staining. Briefly, DilC1(5) was added to the cells to 50 nM final concentration and the cells were incubated at 37° C., 5% CO2, for 15 to 30 minutes. Cells were washed once by adding 2 mL of warm phosphate-buffered saline (PBS). Mitochondrial staining was determined by fluorescence microscopy with 633 nm excitation using standard filters for far-red emission.
Using the ratio between C10% TMRE (the concentration at which 10% MMP remains, i.e. 90% MMP is lost) and Cmin-OCR (the concentration at which minimal OCR induction is observed), we categorized the MMP-retaining uncouplers into two groups.
Turning to `N#CC1CCN(Cc2cc(Cl)cc(C(=O)Nc3nc4ccc(C(F)(F)F)cc4s3)c2O)C1` (stereo not drawn) [Compound 36, 5-chloro-3-((3-cyanopyrrolidin-1-yl)methyl)-2-hydroxy-N-(6-(trifluoromethyl)benzo[d]thiazol-2-yl)benzamide], the C10%TMRE/Cmin-OCR was around 36.

For the compound `CS(=O)(=O)C1CCN(Cc2cc(Cl)cc(C(=O)Nc3nc4ccc(C(F)(F)F)cc4s3)c2O)C1` (stereo not drawn) [Compound 37, 5-chloro-2-hydroxy-3-((3-(methylsulfonyl)pyrrolidin-1-yl)methyl)-N-(6-(trifluoromethyl)benzo[d]thiazol-2-yl)benzamide], the C10%TMRE/Cmin-OCR is recorded as around 37.

Consider `COCCOCc1cc(F)cc(C(=O)Nc2nc3ccc(C(F)(F)F)cc3s2)c1O` [Compound 43], for which the C10%TMRE/Cmin-OCR is around 43.

With `Cc1cc(Cl)cc(C(=O)Nc2nc3c(COCc4ccc(F)cc4)cc(C(F)(F)F)cc3s2)c1O` [Compound 83, 5-chloro-N-(4-(((4-fluorobenzyl)oxy)methyl)-6-(trifluoromethyl)benzo[d]thiazol-2-yl)-2-hydroxy-3-methylbenzamide], the C10%TMRE/Cmin-OCR is around 83.

As for `O=C(Nc1nc2ccc(C(F)(F)F)cc2s1)c1cc(Cl)ccc1O` [drawing 303], the C10%TMRE/Cmin-OCR result was “[drawing 303]”.

With `O=C(Nc1nc2ccc(C(F)(F)F)cc2s1)c1cc(Cl)ccc1O` [drawing 306], the C10%TMRE/Cmin-OCR result was “[drawing 306]”.

Take `O=C(Nc1nc2ccc(C(F)(F)F)cc2s1)c1cc(Cl)ccc1O` [drawing 309]: the C10%TMRE/Cmin-OCR result was “[drawing 309]”.

As to `O=C(Nc1nc2ccc(C(F)(F)F)cc2s1)c1cc(Cl)ccc1O` [drawing 312], the C10%TMRE/Cmin-OCR entry was “[drawing 312]”.

On to `O=C(Nc1nc2ccc(C(F)(F)F)cc2s1)c1cc(Cl)ccc1O` [drawing 315], for which the C10%TMRE/Cmin-OCR result was “[drawing 315]”.

For `O=C(Nc1nc2ccc(C(F)(F)F)cc2s1)c1cc(Cl)ccc1O` [drawing 318], the C10%TMRE/Cmin-OCR result was “[drawing 318]”.

As to `O=C(Nc1nc2ccc(C(F)(F)F)cc2s1)c1cc(Cl)ccc1O` [drawing 321], the C10%TMRE/Cmin-OCR result was “[drawing 321]”.

In the case of `Cc1cc(Cl)cc(C(=O)Nc2nc3ccc(C(F)(F)F)cc3s2)c1O` [drawing 324], the C10%TMRE/Cmin-OCR entry was “[drawing 324]”.

`Cc1cc(Cl)cc(C(=O)Nc2nc3ccc(C(F)(F)F)cc3s2)c1O` [drawing 327]: the C10%TMRE/Cmin-OCR entry is “[drawing 327]”.

`Cc1cc(Cl)cc(C(=O)Nc2nc3ccc(C(F)(F)F)cc3s2)c1O` [drawing 330]: the C10%TMRE/Cmin-OCR result is “[drawing 330]”.

For `Cc1cc(Cl)cc(C(=O)Nc2nc3ccc(C(F)(F)F)cc3s2)c1O` [drawing 333], the C10%TMRE/Cmin-OCR entry is “[drawing 333]”.

With `COCc1cc(C(F)(F)F)cc2sc(NC(=O)c3cc(Cl)cc(C)c3O)nc12` [drawing 336], the C10%TMRE/Cmin-OCR result was “[drawing 336]”.

For the compound `COCCOCc1cc(C(F)(F)F)cc2sc(NC(=O)c3cc(Cl)cc(C)c3O)nc12` [drawing 339], the C10%TMRE/Cmin-OCR result was “[drawing 339]”.

For `COCCOCc1cc(C(F)(F)F)cc2sc(NC(=O)c3cc(Cl)cc(C)c3O)nc12` [drawing 342], the C10%TMRE/Cmin-OCR result was “[drawing 342]”.

For the compound `COCCOCc1cc(C(F)(F)F)cc2sc(NC(=O)c3cc(Cl)cc(C)c3O)nc12` [drawing 345], the C10%TMRE/Cmin-OCR entry was “[drawing 345]”.

Take `COCCOCc1cc(C(F)(F)F)cc2sc(NC(=O)c3cc(Cl)cc(C)c3O)nc12` [drawing 348]: the C10%TMRE/Cmin-OCR entry is “[drawing 348]”.

Tested on in a further data set: not listed separately
Kind of data set: Metabolic stability assay in rat liver microsomes. To be noted: 1 μM compound, 0.5 mg/ml microsomal protein, 37° C. The format is in vitro ADME. The protocol: The metabolic stability of the compounds was evaluated in incubation with rat liver microsomes.
As to `CN(C)Cc1cc(Cl)cc(C(=O)Nc2nc3ccc(OC(F)(F)F)cc3s2)c1O`, the “Metabolic stability half-life (T1/2, min, rat liver microsome)” value is listed as “∞”.

Staying with this data set, now noted: rat, liver microsomes, 1 μM compound, 0.5 mg/ml microsomal protein, 37° C.; read-out: Metabolic stability half-life (T1/2, min, rat liver microsome).
Turning to `CN(C)Cc1cc(Cl)cc(C(=O)Nc2nc3ccc(C(F)(F)F)cc3s2)c1O`, the half-life at 1 µM stood at 14.7 h.

Turning to `O=C(Nc1nc2ccc(C(F)(F)F)cc2s1)c1cc(Cl)cc(CN2CCOCC2)c1O`, the half-life at 1 µM is 1.5 h.
